Our source for the Papp A→B, Papp B→A and efflux ratio values is patent US12102648B2, “Orally-bioavailable nucleoside analogs” (priority 2021, dated 2024).

The data set can be described thus: in vitro. Type of data set: in vitro ADME. The settings on record: human. How it is done: The bidirectional permeability of compounds across the Caco-2 cell monolayer was assessed. The Caco-2 model is a widely used in vitro model for small intestinal absorption and potential for efflux.
Cell culture. Caco-2 cells were grown in DMEM supplemented with 10% fetal bovine serum (FBS), 1% Penicillin-Streptomycin and 1% MEM NEAA. The cells were incubated at 37° C., 5% CO2/95% air and saturated humidity. After reaching 80-90% confluency, the cells were gently detached with trypsin. Cells at passage 39 were seeded on the 24-well BD insert system at the density of 8×10^4 cells/cm^2 and cultured for 19 days with medium changed every 2-3 days. Measure the transepithelial electrical resistance (TEER) value of each well. The wells can be used only when their TEER values are greater than 600 Ohms/cm^2.
Transport assay. After removing the cell culture medium from the 24-well insert plate, the cells were rinsed with warm transport buffer. Appropriate dosing and receiving solutions were applied to the donor and receiver chambers to initiate the transport assay in apical to basolateral (A to B) or basolateral to apical (B to A) directions ([…] for apical and basolateral wells, respectively). Duplicate wells in each direction were used for the test compound and control compound. The plate was incubated in CO2 incubator at 37° C., with 5% CO2/95% air and saturated humidity without shaking. The sample after 10-minute incubation was used as the T0 sample, and the sample after 90-minute incubation was used as the T90 sample. To and T90 samples were collected from the donor and receiver side of each well at the designed timepoint, mixed with the transport buffer and acetonitrile/MeOH (1:1, v/v) and the internal standard for LC/MS/MS analysis. All samples were vortexed and centrifuged at 4000 rpm at 4° C. for 15 minutes, diluted with pure water and stored at 4° C. before bioanalysis by LC/MS/MS.
Sample analysis. The concentrations of test compounds and control compounds in Caco-2 cells were quantitatively determined by LC/MS/MS method after protein precipitation.
Calculations. The apparent permeability (Papp, cm/s), efflux ratio (ER) and recovery parameters were calculated for Caco-2 drug transport assay using the following equations:
[formula] [formula] where VR is the solution volume in the receiver chamber (0.4 mL on the apical side, 1.2 mL on the basolateral side); Area is the surface area for the insert membrane, i.e., 0.3 cm^2 for the area of the monolayer; Time is incubation time, expressed in seconds, i.e., 5400 s (90 min) for the current experiment; Co is the initial concentration of test compound or peak area ratio of control compounds in the donor chamber (μM); VD is the volume in the donor chambers (0.4 mL on the apical side, 1.2 mL on the basolateral side); CD and CR are the final concentrations of test compounds or peak area ratio of control compounds in donor and receiver chambers, respectively.
Compounds with Papp<1.0 are classified as low permeability, Papp between 1-10 are classified as medium permeability, and Papp≥10 are classified as high permeability. An efflux ratio (ER)>2 indicates the compounds are potential substrates for intestinal cell efflux transporters.

Setting [1] is: Caco-2 monolayer, apical to basolateral, 90-minute incubation, read-out: Papp, A-B.
[2] abbreviates: Caco-2 monolayer, basolateral to apical, 90-minute incubation, read-out: Papp, B-A.
Setting [3] is: Caco-2 monolayer, ER>2 indicates potential efflux transporter substrate, read-out: ER (efflux ratio).

Like-named read-outs stand apart in the source and are kept apart here.

Turning to `CNc1nc(NC(=O)Cc2ccccc2)nc2c1ncn2[C@@H]1O[C@H](COC(C)=O)[C@@H](O)[C@@]1(C)F` [Compound 334, ((2R,3R,4R,5R)-4-fluoro-3-hydroxy-4-methyl-5-(6-(methylamino)-2-(2-phenylacetamido)-9H-purin-9-yl)tetrahydrofuran-2-yl)methyl acetate], the Papp A→B at 90 min under setting [1] was 0.76 ×10⁻⁶ cm/s. Moreover, under setting [2], the Papp B→A at 90 min worked out at 19 ×10⁻⁶ cm/s. Further, the efflux ratio at 90 min under setting [3] came to 25.
Regarding `CC(C)(C)C(=O)OCO[C@H]1[C@@H](O)[C@](C#N)(c2ccc3c(N)ncnn23)O[C@@H]1COC(=O)CC1CCCCC1` [Compound 32, (((2R,3S,4R,5R)-5-(4-aminopyrrolo[2,1-f][1,2,4]triazin-7-yl)-5-cyano-2-((2-cyclohexylacetoxy)methyl)-4-hydroxytetrahydrofuran-3-yl)oxy)methyl pivalate], where the note is “Caco-2”, the Papp A→B at 90 min came out at 6.9 ×10⁻⁶ cm/s, the Papp B→A at 90 min turned out to be 5.5 ×10⁻⁶ cm/s and the efflux ratio at 90 min amounted to 0.8.
As for `CCCCCCCCCCCCCCCCCCOCCOP(=O)(O)OC[C@H]1O[C@@H](n2cnc3c(NC)nc(N)nc32)[C@](C)(F)[C@@H]1O` [Compound 254, ((2R,3R,4R,5R)-5-(2-amino-6-(methylamino)-9H-purin-9-yl)-4-fluoro-3-hydroxy-4-methyltetrahydrofuran-2-yl)methyl (2-(octadecyloxy)ethyl) hydrogen phosphate], where the note is “Caco-2”, the Papp A→B at 90 min was determined as 2.2 ×10⁻⁶ cm/s, the Papp B→A at 90 min worked out at 1.7 ×10⁻⁶ cm/s and the efflux ratio at 90 min came out at 0.8.
Consider `CCC(=O)OC[C@H]1O[C@@](C#N)(c2ccc3c(NC(=O)c4ccccc4)ncnn23)[C@H](O)[C@@H]1O` [Compound 107, ((2R,3S,4R,5R)-5-(4-benzamidopyrrolo[2,1-f][1,2,4]triazin-7-yl)-5-cyano-3,4-dihydroxytetrahydrofuran-2-yl)methyl propionate], for which, under setting [1], the Papp A→B at 90 min is 2.1 ×10⁻⁶ cm/s. Also, the Papp B→A at 90 min under setting [2] came to 7.5 ×10⁻⁶ cm/s. Further, the efflux ratio at 90 min under setting [3] came out at 3.6.
Regarding `CCCCCOC(=O)Nc1ncnn2c([C@]3(C#N)O[C@H](COC(=O)C(C)C)[C@@H](O)[C@H]3O)ccc12` [Compound 92, ((2R,3S,4R,5R)-5-cyano-3,4-dihydroxy-5-(4-(((pentyloxy)carbonyl)amino)pyrrolo[2,1-f][1,2,4]triazin-7-yl)tetrahydrofuran-2-yl)methyl isobutyrate], under “Caco-2”, the Papp A→B at 90 min is 2.7 ×10⁻⁶ cm/s, the Papp B→A at 90 min was 4.6 ×10⁻⁶ cm/s and the efflux ratio at 90 min amounted to 1.7.
For `N#C[C@@]1(c2ccc3c(N)ncnn23)O[C@H](COC(=O)CC23CC4CC(CC(C4)C2)C3)[C@@H](O)[C@H]1O` [Compound 263, ((2R,3S,4R,5R)-5-(4-aminopyrrolo[2,1-f][1,2,4]triazin-7-yl)-5-cyano-3,4-dihydroxytetrahydrofuran-2-yl)methyl 2-((3R,5R,7R)-adamantan-1-yl)acetate], in that order: 13 ×10⁻⁶ cm/s, 19 ×10⁻⁶ cm/s and 1.5.
With `CC(C)[C@H](N)C(=O)O[C@H]1[C@@H](O)[C@](C#N)(c2ccc3c(NC(=O)OCOC(=O)C(C)(C)C)ncnn23)O[C@@H]1COC(=O)Cc1ccccc1` [Compound 360, (2R,3S,4R,5R)-5-cyano-4-hydroxy-2-((2-phenylacetoxy)methyl)-5-(4-((((pivaloyloxy)methoxy)carbonyl)amino)pyrrolo[2,1-f][1,2,4]triazin-7-yl)tetrahydrofuran-3-yl L-valinate], the Papp A→B at 90 min under setting [1] turned out to be 0.49 ×10⁻⁶ cm/s. In addition, the Papp B→A at 90 min under setting [2] is 0.16 ×10⁻⁶ cm/s. Also, the efflux ratio at 90 min under setting [3] amounted to 0.33.
Consider `N#C[C@@]1(c2ccc3c(N)ncnn23)O[C@H](COC(=O)CC2CCCCC2)[C@@H](O)[C@H]1O` [Compound 10, ((2R,3S,4R,5R)-5-(4-aminopyrrolo[2,1-f][1,2,4]triazin-7-yl)-5-cyano-3,4-dihydroxytetrahydrofuran-2-yl)methyl 2-cyclohexylacetate], for which, for the setting “Caco-2”, the Papp A→B at 90 min was determined as 3 ×10⁻⁶ cm/s, the Papp B→A at 90 min turned out to be 4.7 ×10⁻⁶ cm/s and the efflux ratio at 90 min turned out to be 1.6.
The matching figures for `CC(C)CC(=O)OC[C@H]1O[C@@](C#N)(c2ccc3c(N)ncnn23)[C@H](O)[C@@H]1OC(=O)CC1CCCCC1` [Compound 18, ((2R,3S,4R,5R)-5-(4-aminopyrrolo[2,1-f][1,2,4]triazin-7-yl)-5-cyano-3-(2-cyclohexylacetoxy)-4-hydroxytetrahydrofuran-2-yl)methyl 3-methylbutanoate]: 16 ×10⁻⁶ cm/s, 8.8 ×10⁻⁶ cm/s and 0.6.
Regarding `CC(=O)Nc1ncnn2c([C@]3(C#N)O[C@H](COC(=O)Cc4ccccc4)[C@@H](OC(=O)[C@@H](N)C(C)C)[C@H]3O)ccc12` [Compound 344, (2R,3S,4R,5R)-5-(4-acetamidopyrrolo[2,1-f][1,2,4]triazin-7-yl)-5-cyano-4-hydroxy-2-((2-phenylacetoxy)methyl)tetrahydrofuran-3-yl L-valinate], the Papp A→B at 90 min under setting [1] is 0.8 ×10⁻⁶ cm/s. The Papp B→A at 90 min under setting [2] was determined as 9.7 ×10⁻⁶ cm/s. Also, the efflux ratio at 90 min under setting [3] was determined as 12.
In the case of `N#C[C@@]1(c2ccc3c(N)ncnn23)O[C@H](COC(=O)C2(c3ccccc3)CC2)[C@@H](O)[C@H]1O` [Compound 289, ((2R,3S,4R,5R)-5-(4-aminopyrrolo[2,1-f][1,2,4]triazin-7-yl)-5-cyano-3,4-dihydroxytetrahydrofuran-2-yl)methyl 1-phenylcyclopropane-1-carboxylate], where the note is “Caco-2”, the Papp A→B at 90 min worked out at 6.4 ×10⁻⁶ cm/s, the Papp B→A at 90 min worked out at 25 ×10⁻⁶ cm/s and the efflux ratio at 90 min was 3.8.
In the case of `CC(C)C(=O)OC[C@H]1O[C@@](C#N)(c2ccc3c(NC(=O)[C@@H](N)C(C)C)ncnn23)[C@H](O)[C@@H]1O` [Compound 116, [(2R,3S,4R,5R)-5-{4-[(2S)-2-amino-3-methylbutanamido]pyrrolo[2,1-f][1,2,4]triazin-7-yl}-5-cyano-3,4-dihydroxyoxolan-2-yl]methyl 2-methylpropanoate], under “Caco-2”, the Papp A→B at 90 min is 0.15 ×10⁻⁶ cm/s, the basolateral-to-apical permeability (Papp B→A) at 90 min was 1.2 ×10⁻⁶ cm/s and the efflux ratio at 90 min is 7.9.
As to `CNc1nc(N)nc2c1ncn2[C@@H]1O[C@H](COC(=O)Cc2ccccc2)[C@@H](OC(C)=O)[C@@]1(C)F` [Compound 217, ((2R,3R,4R,5R)-3-acetoxy-5-(2-amino-6-(methylamino)-9H-purin-9-yl)-4-fluoro-4-methyltetrahydrofuran-2-yl)methyl 2-phenylacetate], the Papp A→B at 90 min under setting [1] was determined as 14 ×10⁻⁶ cm/s. Under setting [2], the Papp B→A at 90 min was 6.1 ×10⁻⁶ cm/s. In addition, the efflux ratio at 90 min under setting [3] came out at 0.45.
The matching figures for `CCCCC(=O)Nc1ncnn2c([C@]3(C#N)O[C@H](CO)[C@@H](OC(=O)Cc4ccccc4)[C@H]3O)ccc12` [Compound 340, (2R,3S,4R,5R)-5-cyano-4-hydroxy-2-(hydroxymethyl)-5-(4-pentanamidopyrrolo[2,1-f][1,2,4]triazin-7-yl)tetrahydrofuran-3-yl 2-phenylacetate]: 0.64 ×10⁻⁶ cm/s, 0.23 ×10⁻⁶ cm/s and 0.35.
Take `CCCCC(=O)Nc1ncnn2c([C@]3(C#N)O[C@H](COC(=O)CC(C)C)[C@@H](O)[C@H]3O)ccc12` [Compound 283, ((2R,3S,4R,5R)-5-cyano-3,4-dihydroxy-5-(4-pentanamidopyrrolo[2,1-f][1,2,4]triazin-7-yl)tetrahydrofuran-2-yl)methyl 3-methylbutanoate]: under “Caco-2”, the Papp A→B at 90 min was found to be 3 ×10⁻⁶ cm/s, the Papp B→A at 90 min was found to be 1 ×10⁻⁶ cm/s and the efflux ratio at 90 min was found to be 0.34.
The matching figures for `CC(=O)OC[C@H]1O[C@@](C#N)(c2ccc3c(N)ncnn23)[C@H](O)[C@@H]1OC(=O)CC1CCCCC1` [Compound 50, (2R,3S,4R,5R)-2-(acetoxymethyl)-5-(4-aminopyrrolo[2,1-f][1,2,4]triazin-7-yl)-5-cyano-4-hydroxytetrahydrofuran-3-yl 2-cyclohexylacetate]: 1.9 ×10⁻⁶ cm/s, 0.76 ×10⁻⁶ cm/s and 0.39.

By Papp A→B is commonly meant how fast a substance crosses the layer from the apical side. Broadly, the Papp B→A is how fast a substance crosses the layer from the basolateral side.
